We go through 1 molecule from patent US20250129102A1, “CRYSTAL FORM OF PYRIMIDINE HETEROCYCLIC COMPOUND AND PREPARATION METHOD THEREFOR” (D3 Bio (Wuxi) Co., Ltd., priority 2021, published 2025).

Series [1] can be described thus: Metabolic stability in hepatocytes, SD rats. As to conditions: rat, cryopreserved hepatocytes. In kind it is in vitro ADME. On the procedure:
Metabolic stabilities of assay compound in hepatocytes of CD-1 mice, SD rats, beagle dogs, cynomolgus monkeys, and human were assayed, respectively.
Several 96-well sample precipitation plates were prepared and named T0, T15, T30, T60, T90, T120, T0-MC, T120-MC and blank substrates, respectively. The recovery medium and incubation medium were taken out in advance and placed in a 37° C. water bath for pre-heating. Cryopreserved hepatocytes were removed from the liquid nitrogen tank and immediately immersed in a 37° C. water bath (approximately 90 seconds). After the cryopreserved hepatocytes had thawed and loosened, they were poured into a centrifuge tube containing 40 mL of recovery medium, and the tube was gently inverted to allow the cells to be resuspended in the recovery medium. The cells were centrifuged at 100×g at room temperature for 5 min, and the supernatant was removed. The hepatocytes were resuspended in an appropriate volume of incubation medium, and the cell viability was calculated by Trypan Blue staining method. 198 μL of hepatocyte suspension (0.51×10^6 cells/mL) was added to the preheated incubation plate. For the culture medium control group, 198 μL of hepatocyte-free incubation medium was added to T0-MC and T120-MC incubation plate. All incubation plates were pre-incubated in a 37° C. incubator for 10 minutes. Then 2 μL of working solutions of the assay sample and the control compound were added, respectively, and the mixture was mixed well. The incubation plate was immediately put into the shaker in the incubator, and the reaction was initiated while starting the timer. For each time point of each compound, 2 duplicate samples were prepared. The incubation conditions were 37° C., saturated humidity, and 5% CO2. […] All samples were mixed well and analyzed by LC/MS/MS.

Series [2] is described as follows: In vitro stability in liver microsomes, beagle dogs. To be noted: dog, 0.5 mg/mL. The format is in vitro ADME. On the procedure:
Metabolic stabilities of the assay compound in liver microsomes of CD-1 mice, SD rats, beagle dogs, cynomolgus monkeys, and human were assayed, respectively.
Two 96-well incubation plates were prepared and named T60 incubation plate and NCF60 incubation plate, respectively. 445 μL of microsomal working solutions (liver microsomal protein concentration of 0.56 mg/mL) were added to the T60 incubation plate and the NCF60 incubation plate, respectively, and then the above incubation plates were pre-incubated in a 37° C. water bath for about 10 minutes.
After the pre-incubation, 5 μL of working solutions of the assay sample or the control compound were added to the T60 incubation plate and the NCF60 incubation plate, respectively, and the mixture was mixed well. 50 μL of potassium phosphate buffer was added to each well of the NCF60 incubation plate to initiate the reaction. 180 μL of stop solution (200 ng/mL tolbutamide and 200 ng/mL labetalol in acetonitrile) and 6 uL of NADPH regeneration system working solution were added to the T0 stop plate, and 54 μL of sample was transferred from T60 incubation plate to T0 stop plate (generation of T0 sample). The reaction was initiated by adding 44 μL of NADPH regeneration system working solution to each well of the T60 incubation plate. Only 54 μL of microsome working solution, 6 uL of NADPH regeneration system working solution and 180 μL of stop solution were added to the Blank plate. Therefore, in samples of the assay compound or the control compound, the final reaction concentration of compound, testosterone, diclofenac and propafenone was 1 μM, the concentration of liver microsomes was 0.5 mg/mL, and the final reaction concentrations of DMSO and acetonitrile in the reaction system were 0.01% (v/v) and 0.99% (v/v), respectively. […] All samples were injected and analyzed by liquid chromatography-tandem mass spectrometry.
For orientation: Liver microsomes are vesicles of endoplasmic reticulum, rich in cytochrome P450 enzymes.

Series [3] in a line: Stability in whole blood, CD-1 mice. In kind it is in vitro ADME. As to conditions: CD-1 mice whole blood, 5 μM, 37° C. On the procedure: Stabilities of the assay compound in whole blood of CD-1 mice, SD rats, beagle dogs and cynomolgus monkeys were assayed, respectively. On the day of the assay or the day before the assay, fresh whole blood from CD-1 mice, SD rats, beagle dogs, and cynomolgus monkeys was collected using anticoagulant EDTA-K2. Prior to the start of the assay, the whole blood was mixed with PBS in 1:1 (v: v) and the mixture was preheated in a 37° C. water bath for 10 to 20 minutes. 96-well incubation plates were prepared and named T0, T30, T60, […], respectively. In the corresponding incubation plates, including T0, T30, T60 and […] incubation plates, 2 μL of working solutions of the compound or the control compound were mixed with 98 μL of blank whole blood of mice, rats, canines, monkeys and human in duplicate. All samples were incubated in a 37° C. water bath. The final incubation concentration of the compound was 5 μM and the final incubation concentration of the control compound was 2 μM. At the end of incubation for each time point, the corresponding incubation plate was removed and 100 μL of ultrapure water was immediately added to the corresponding sample wells, and mixed well. 800 μL of a solution of 200 ng/mL tolbutamide and labetalol in acetonitrile was added to precipitate the protein. […] 150 μL of supernatant was taken out and analyzed by LC/MS/MS.

Series [4] can be described thus: Body weight and tolerance in the Mia PaCa-2 tumor model. As to conditions: each dose group (10 and 30 mg/kg PO QD × 22). The format is in vivo. On the procedure:
Assay on pharmacodynamics in vivo in a subcutaneously transplanted tumor model of human pancreatic cancer Mia PaCa-2 cells in Balb/c Nude mice
Cell inoculation: 0.2 mL (5×10^6 cells/mouse) of Mia PaCa-2 cells (plus Matrigel, 1:1 by volume) were subcutaneously inoculated into the right back of each mouse. When the average tumor volume reached 190 mm^3, mice were randomized into groups based on tumor volume and administration was initiated according to the protocol in Table 15.

By half-life is commonly meant the time in which the quantity being followed falls by half. Higher therefore signals slow loss. As to `C=C(F)C(=O)N1CCN(c2nc(OC[C@@]34CCCN3C[C@H](F)C4)nc3c2CO[C@H](c2c(F)c(N)cc(C)c2C(F)(F)F)C3)C[C@@H]1CC#N` [Compound of formula (I)], the half-life at 1 μM in series [1] was 20.6 min. For the same molecule, the hepatocyte CLint at 1 μM in series [1] (read-out: CLint(hep)) turned out to be 67.4 µL/min/1e6 cells. In addition, the CLint scaled at 1 μM in series [1] (read-out: CLint(liver)) is 315 mL/min/kg. In series [2], the CLint scaled at 1 μM was < 13.8 mL/min/kg and the half-life at 1 μM is > 145 min. Further, the microsomal CLint at 1 μM in series [2] (read-out: CLint(hep)) was < 9.6 µL/min/mg. For the same molecule, the “Detection of assay compound content within 240 min” value in series [3] worked out at 117%. Besides, in series [4], the “body weight of mice” value is on record as “stable” and the tolerance result is listed as “no obvious intolerance”.
